From ChEMBL document CHEMBL6177991, “Discovery of P11-2: A Potent First-in-Class MNK1-Targeting PROTAC Degrader for the Treatment of Cancer” (J Med Chem, 2025) come the findings set out here.

Each structure is given as a SMILES string.

The nature of series [1]: Tmax in male Sprague-Dawley rat at 20 mg/kg, po measured up to 24 hrs by LC-MS analysis. In kind it is ADME, organism-based. Particulars: in vivo.
The subject of a further series is MV4-11. The series can be described thus: Induction of cell cycle arrest in human MV4-11 cells assessed as decrease in accumulation of cells at G2 phase incubated for 24 hrs by PI staining based flow cytometric analysis. In kind it is functional. Conditions: dose 30-300 µM. Background: A flow cytometer gives signals particle by particle.
A short description of series [2]: Toxicity in male ICR mouse assessed as change in serum ALT level at 100 mg/kg, ip measured after 14 days. In kind it is organism-based. Conditions: in vivo, 336 h, time 14 day.

For the molecule `O=C1CCC(N2Cc3c(NC(=O)CCCCCC(=O)N4CCC(C(=O)Nc5ncc(-c6ccccc6)s5)CC4)cccc3C2=O)C(=O)N1` (stereo not drawn), the Tmax (in general, the time from dosing to the highest level) in series [1] worked out at 1.4 h. In addition, the values for the Activity result (in the series on MV4-11; in series [2]) were “Dose-dependent-effect” and “Non-toxic”, respectively.
